We go through 64 molecules from patent US10150728B2, “Alkylene derivatives” (Shionogi & Co., Ltd., priority 2013, dated 2018).

pIC50: −log10 of the molar value.

For the assay, the target named is recombinant human ACC2 (Homo sapiens (Human), UniProt O00763). Kind of assay: Measurement of inhibitory activity on human ACC2 (MALDI-TOF MS, acetyl CoA to malonyl CoA conversion). The class given is biochemical. The note with it: Tables 155-159. In a few lines: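 His-tagged human ACC2 (residues 27–2458) from baculovirus-infected Sf-9 cells was preincubated 1 h in pH 7.4 HEPES-KOH buffer with MgCl2, 6-10 mM potassium citrate, glutathione and BSA. Substrate solution held 1 mM ATP, 0.8 mM acetyl CoA and 25-50 mM bicarbonate. After 1–3 h at room temperature, malonyl CoA/(malonyl+acetyl CoA) was read by negative-mode MALDI-TOF MS; citrate, bicarbonate and time varied by enzyme lot.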
Chain of recombinant human ACC2 (O00763 27-2458): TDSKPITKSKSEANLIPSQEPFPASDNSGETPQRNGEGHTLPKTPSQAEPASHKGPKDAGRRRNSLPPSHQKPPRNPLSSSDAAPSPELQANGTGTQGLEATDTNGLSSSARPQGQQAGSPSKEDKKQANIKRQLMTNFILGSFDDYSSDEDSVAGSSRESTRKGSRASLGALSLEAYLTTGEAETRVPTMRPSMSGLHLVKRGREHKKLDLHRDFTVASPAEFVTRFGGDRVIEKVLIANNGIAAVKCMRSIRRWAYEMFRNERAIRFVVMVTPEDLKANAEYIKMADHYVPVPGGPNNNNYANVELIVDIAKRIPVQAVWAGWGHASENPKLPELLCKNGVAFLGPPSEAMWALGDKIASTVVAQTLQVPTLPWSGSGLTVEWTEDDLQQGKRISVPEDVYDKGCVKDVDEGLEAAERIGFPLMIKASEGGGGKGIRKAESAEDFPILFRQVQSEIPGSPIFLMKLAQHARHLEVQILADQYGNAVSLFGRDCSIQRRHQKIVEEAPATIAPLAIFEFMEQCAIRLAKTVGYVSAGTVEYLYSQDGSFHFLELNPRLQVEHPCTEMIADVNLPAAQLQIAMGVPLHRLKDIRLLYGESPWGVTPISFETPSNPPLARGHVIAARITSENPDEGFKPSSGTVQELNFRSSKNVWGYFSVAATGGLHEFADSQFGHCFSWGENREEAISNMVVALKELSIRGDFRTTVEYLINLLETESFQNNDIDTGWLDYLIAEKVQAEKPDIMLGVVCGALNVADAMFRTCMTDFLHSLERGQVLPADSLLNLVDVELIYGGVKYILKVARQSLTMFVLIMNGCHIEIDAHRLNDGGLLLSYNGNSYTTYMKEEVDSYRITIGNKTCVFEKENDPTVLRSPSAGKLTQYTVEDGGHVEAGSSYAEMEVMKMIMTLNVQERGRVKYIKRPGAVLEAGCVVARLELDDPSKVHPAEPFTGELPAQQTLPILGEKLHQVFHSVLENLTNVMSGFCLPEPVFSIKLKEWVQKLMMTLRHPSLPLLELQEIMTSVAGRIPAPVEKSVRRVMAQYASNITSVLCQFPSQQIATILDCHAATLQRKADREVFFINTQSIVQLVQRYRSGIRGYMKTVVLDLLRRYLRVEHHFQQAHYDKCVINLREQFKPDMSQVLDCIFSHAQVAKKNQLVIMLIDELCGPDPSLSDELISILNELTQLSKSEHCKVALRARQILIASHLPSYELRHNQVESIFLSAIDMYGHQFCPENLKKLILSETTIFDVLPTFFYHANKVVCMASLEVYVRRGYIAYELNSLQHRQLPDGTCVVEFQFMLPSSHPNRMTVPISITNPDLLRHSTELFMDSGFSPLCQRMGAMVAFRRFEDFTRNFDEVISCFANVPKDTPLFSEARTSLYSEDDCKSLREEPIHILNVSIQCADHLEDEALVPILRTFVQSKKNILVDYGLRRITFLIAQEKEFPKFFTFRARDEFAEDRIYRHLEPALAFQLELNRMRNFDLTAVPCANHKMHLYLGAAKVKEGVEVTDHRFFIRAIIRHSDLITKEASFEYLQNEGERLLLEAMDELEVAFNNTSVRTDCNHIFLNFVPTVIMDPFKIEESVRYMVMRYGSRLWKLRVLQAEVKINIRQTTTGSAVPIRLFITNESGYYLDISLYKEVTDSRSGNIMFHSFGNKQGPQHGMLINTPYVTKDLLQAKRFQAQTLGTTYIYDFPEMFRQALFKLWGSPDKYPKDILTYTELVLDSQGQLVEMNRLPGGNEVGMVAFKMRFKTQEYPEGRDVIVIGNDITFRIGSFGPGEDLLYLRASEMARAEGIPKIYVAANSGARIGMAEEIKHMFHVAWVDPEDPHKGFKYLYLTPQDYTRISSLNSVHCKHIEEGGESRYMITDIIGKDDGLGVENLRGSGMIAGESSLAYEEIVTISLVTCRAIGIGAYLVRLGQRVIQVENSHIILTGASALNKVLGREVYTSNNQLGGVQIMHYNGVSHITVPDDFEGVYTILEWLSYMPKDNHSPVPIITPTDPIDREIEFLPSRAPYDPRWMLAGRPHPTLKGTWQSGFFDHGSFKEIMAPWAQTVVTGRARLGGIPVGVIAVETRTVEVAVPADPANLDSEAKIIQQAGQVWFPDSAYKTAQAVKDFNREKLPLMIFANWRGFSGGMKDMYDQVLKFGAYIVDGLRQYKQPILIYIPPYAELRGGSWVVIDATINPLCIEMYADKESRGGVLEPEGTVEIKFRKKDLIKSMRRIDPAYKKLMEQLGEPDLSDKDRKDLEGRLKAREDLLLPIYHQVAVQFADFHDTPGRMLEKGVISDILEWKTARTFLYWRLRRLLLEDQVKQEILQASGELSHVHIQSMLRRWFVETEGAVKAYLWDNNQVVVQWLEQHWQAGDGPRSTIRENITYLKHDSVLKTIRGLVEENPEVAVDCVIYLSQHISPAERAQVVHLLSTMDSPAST
As for `CC(=O)N[C@@H](C)CO[C@H]1C[C@H](COc2ccc3nc(OCC(C)C)sc3n2)C1` [Compound I-196], the pIC50 (as a rule, the negative decadic logarithm of the IC50, by convention in mol/L) is 7.92.
In the case of `CC(=O)N[C@@H](C)CO[C@H]1C[C@H](COc2ccc3nc(OCC4CC4(F)F)sc3n2)C1` (stereo partly shown) [Compound I-197], the pIC50 is 7.82.
Take `CC(=O)N[C@@H](C)CO[C@H]1C[C@H](COc2ccc3nc(OCC4(C)CC4)sc3n2)C1` [Compound I-198]: the negative-log IC50 (pIC50) is 8.30.
`CC(=O)N[C@@H](C)CO[C@H]1C[C@H](COc2ccc3nc(OCC4CCO4)sc3n2)C1` (stereo partly shown) [Compound I-199]: the pIC50 was 6.92.
Next, `CC(=O)N[C@@H](C)CO[C@H]1C[C@H](COc2ccc3nc(OC4(C)CC4)sc3n2)C1` [Compound I-200]: 7.52; `CC(=O)N[C@@H](C)CO[C@H]1CC[C@](F)(COc2ccc3nc(OCC4CC4)sc3n2)CC1` [Compound I-201]: 7.77; `CC(=O)N[C@@H](C)CO[C@H]1C[C@](F)(COc2ccc3nc(OC(C)CF)sc3n2)C1` (stereo partly shown) [Compound I-202]: 7.18.
Turning to `CC(=O)N[C@@H](C)CO[C@H]1C[C@](F)(COc2ccc3nc(OCC(C)(F)F)sc3n2)C1` [Compound I-203], the pIC50 was 7.32.
Regarding `CC(=O)N[C@@H](C)CO[C@H]1C[C@](F)(COc2ccc3nc(Oc4ccc(F)cc4)sc3n2)C1` [Compound I-204], the pIC50 was 6.95.
In the case of `C[C@@H](CO[C@H]1C[C@H](COc2ccc3nc(OCC(F)F)sc3n2)C1)NC(N)=O` [Compound I-205], the pIC50 was 7.60.
As to `C[C@@H](CO[C@H]1C[C@H](COc2ccc3nc(OCC(F)F)sc3n2)C1)NC(=O)O` [Compound I-206], the pIC50 was 7.10.
Next, `C[C@@H](CO[C@H]1C[C@H](COc2ccc3nc(OCC(F)F)sc3n2)C1)NC(=O)C(F)(F)F` [Compound I-207]: 7.96; `CC(=O)N[C@@H](C)CO[C@H]1CC[C@H](Oc2ccc3nc(N4CC(F)(F)C4)sc3n2)CC1` [Compound I-208]: 8.10; `CC(=O)N[C@@H](C)CO[C@H]1CC[C@H](Oc2ccc3nc(OC(C)C)sc3n2)CC1` [Compound I-209]: 7.92.
Take `CCOc1nc2cnc(O[C@H]3CC[C@H](OC[C@H](C)NC(C)=O)CC3)c(F)c2s1` [Compound I-210]: the pIC50 was 8.22.
On to `CC(=O)N[C@@H](C)CO[C@H]1C[C@H](COc2ccc3nc(OCC4(C)COC4)sc3n2)C1` [Compound I-211], for which the pIC50 is 7.01.
Under `CCOc1nc2cc(Cl)c(OC[C@H]3C[C@H](OC[C@H](C)NC(C)=O)C3)nc2s1` [Compound I-212] stands 7.77; under `CC(=O)N[C@@H](C)CO[C@H]1C[C@H](COc2nc3sc(OCC(F)F)nc3cc2Cl)C1` [Compound I-213], 7.55; under `CCOc1nc2c(Cl)c(F)c(OC[C@H]3C[C@H](OC[C@H](C)NC(C)=O)C3)nc2s1` [Compound I-214], 7.41.
Under `CC(=O)N[C@@H](C)CO[C@H]1C[C@H](COc2ccc3nc(N4CC(F)(F)C4)sc3n2)C1` [Compound I-215] stands 7.68; under `CCOc1nc2ccc(OC[C@H]3C[C@@H](OC[C@H](C)NC(C)=O)C3)nc2s1` [Compound I-216], 8.10; under `CC(=O)N[C@@H](C)CO[C@H]1C[C@@H](COc2ccc3nc(OCC(F)F)sc3n2)C1` [Compound I-217], 8.10.
As to `CC(=O)N[C@@H](C)CO[C@H]1C[C@H](COc2ccc3nc(OC4CC(F)(F)C4)sc3n2)C1` [Compound I-218], the negative logarithm of the IC50 (pIC50) is 8.10.
Turning to `CC(=O)N[C@@H](C)CO[C@H]1CC[C@H](Oc2cc3sc(OC4CC(F)(F)C4)nc3cn2)CC1` [Compound I-219], the pIC50 was 8.40.
Consider `CC(=O)N[C@@H](C)CO[C@H]1CC[C@H](Oc2cc3sc(OCC4CC4(F)F)nc3cn2)CC1` (stereo partly shown) [Compound I-220], for which the pIC50 was 8.05.
On to `CC(=O)N[C@@H](C)CO[C@H]1CC[C@H](Oc2cc3sc(OCc4ccc(F)cc4)nc3cn2)CC1` [Compound I-221], for which the pIC50 is 6.76.
Next, `CC(=O)N[C@@H](C)CO[C@H]1CC[C@H](Oc2cc3sc(OCC4(F)COC4)nc3cn2)CC1` [Compound I-222]: 6.61.
For `CC(=O)N[C@@H](C)CO[C@H]1CC[C@H](Oc2cc3sc(OC(C)CF)nc3cn2)CC1` (stereo partly shown) [Compound I-223], the pIC50 was 7.32.
On to `CC(=O)N[C@@H](C)CO[C@H]1CC[C@H](Oc2cc3sc(OC4CC4)nc3cn2)CC1` [Compound I-224], for which the pIC50 was 7.47.
On to `CCOc1nc2ccc(OC[C@]3(F)C[C@H](OC[C@H](C)NC(C)=O)C3)nc2s1` [Compound I-225], for which the pIC50 was 7.32.
For the molecule `CC(=O)N[C@@H](C)CO[C@H]1C[C@@](F)(COc2ccc3nc(OCC(F)F)sc3n2)C1` [Compound I-226], the pIC50 was 6.99.
Consider `CC(=O)N[C@@H](C)CO[C@H]1C[C@H](COc2ccc3nc(N4CCC(F)(F)CC4)sc3n2)C1` [Compound I-227], for which the pIC50 was 7.44.
Under `CC(=O)N[C@@H](C)CO[C@H]1C[C@H](COc2ccc3nc(N4CCC(F)(F)C4)sc3n2)C1` [Compound I-228] stands 7.57.
As for `CC(=O)N[C@@H](C)CO[C@H]1C[C@H](COc2ccc3nc(N4CCOCC4)sc3n2)C1` [Compound I-229], the pIC50 was 6.95.
`CCN(C)c1nc2ccc(OC[C@H]3C[C@H](OC[C@H](C)NC(C)=O)C3)nc2s1` [Compound I-230]: the pIC50 is 7.27.
As to `CC(=O)N[C@@H](C)CO[C@H]1C[C@H](COc2ccc3nc(N(C)C)sc3n2)C1` [Compound I-231], the pIC50 is 6.74.
Regarding `CCOc1nc2ccc(O[C@H]3CC[C@H](OC[C@H](CC)NC(C)=O)CC3)c(F)c2s1` [Compound I-232], the pIC50 is 7.68.
For `CCOc1nc2ccc(OC[C@H]3C[C@H](OC[C@H](CC)NC(C)=O)C3)c(F)c2s1` [Compound I-233], the pIC50 was 7.08.
In the case of `CC(=O)N[C@@H](C)CO[C@H]1CC[C@H](Oc2ncc3nc(N4CCC4)sc3c2F)CC1` [Compound I-234], the pIC50 was 8.10.
Consider `CC(=O)N[C@@H](C)CO[C@H]1CC[C@H](Oc2ncc3nc(N4CC(F)C4)sc3c2F)CC1` [Compound I-235], for which the negative-log IC50 (pIC50) is 7.66.
Next, `CC(=O)N[C@@H](C)CO[C@H]1CC[C@H](Oc2ccc3nc(N4CCCC(F)(F)C4)sc3c2F)CC1` [Compound I-236]: 6.99.
In the case of `CC(=O)N[C@@H](C)CO[C@H]1CC[C@H](Oc2ccc3nc(N4CCC4c4ccccc4)sc3c2F)CC1` (stereo partly shown) [Compound I-237], the pIC50 was 6.05.
`CC(=O)N[C@@H](C)CO[C@H]1CC[C@H](Oc2ncc3nc(OC4CC4)sc3c2F)CC1` [Compound I-238]: the pIC50 was 8.40.
Next, `CC(=O)N[C@@H](C)CO[C@H]1CC[C@H](Oc2ncc3nc(OCC(F)F)sc3c2F)CC1` [Compound I-239]: 8.10.
As to `CC(=O)N[C@@H](C)CO[C@H]1CC[C@H](Oc2ncc3nc(OC(C)C)sc3c2F)CC1` [Compound I-240], the pIC50 was 8.15.
With `CC(=O)N[C@@H](C)CO[C@H]1CC[C@H](Oc2ncc3nc(N4CC(F)(F)C4)sc3c2F)CC1` [Compound I-241], the pIC50 is 6.76.
In the case of `CC(=O)N[C@@H](C)CO[C@H]1C[C@H](COc2ccc3nc(OC4CCCC4)sc3n2)C1` [Compound I-242], the pIC50 is 8.15.
On to `CC(=O)N[C@@H](C)CO[C@H]1C[C@H](COc2ccc3nc(OC4CCOCC4)sc3n2)C1` [Compound I-243], for which the pIC50 is 7.55.
For `CC(=O)N[C@@H](C)CO[C@H]1C[C@H](COc2ccc3nc(OC4CCCCC4)sc3n2)C1` [Compound I-244], the pIC50 was 8.15.
Next, `CC(=O)N[C@@H](C)CO[C@H]1C[C@H](COc2ccc3nc(OC4CCC4)sc3n2)C1` [Compound I-245]: 8.40; `CC(=O)N[C@@H](C)CO[C@H]1C[C@H](COc2ccc3nc(O[C@H]4CCOC4)sc3n2)C1` [Compound I-246]: 7.33; `CC(=O)N[C@@H](C)CO[C@H]1C[C@H](COc2ccc3nc(O[C@@H]4CCOC4)sc3n2)C1` [Compound I-247]: 7.77.
Next, `CC(=O)N[C@@H](C)CO[C@H]1C[C@H](COc2ccc3nc(OC4CCSCC4)sc3n2)C1` [Compound I-248]: 8.05; `CC(=O)N[C@@H](C)CO[C@H]1C[C@H](COc2ccc3nc(OC4CCSC4)sc3n2)C1` (stereo partly shown) [Compound I-249]: 8.10; `COc1nc2ccc(OC[C@H]3C[C@H](OC[C@H](C)NC(C)=O)C3)nc2s1` [Compound I-250]: 7.51.
Next, `CC(=O)N[C@@H](C)CO[C@H]1C[C@@H](COc2ccc3nc(N4CC(F)(F)C4)sc3n2)C1` [Compound I-251]: 7.66; `CC(=O)N[C@@H](C)CO[C@H]1CC[C@H](Oc2ncc3nc(OC4CC(F)(F)C4)sc3c2F)CC1` [Compound I-252]: 8.10; `CC(=O)N[C@@H](C)CO[C@H]1CC[C@H](Oc2ncc3nc(OCC4CC4(F)F)sc3c2F)CC1` (stereo partly shown) [Compound I-253]: 7.96.
`CC(=O)N[C@@H](C)CO[C@H]1C[C@H](COc2ccc3nc(N4CC(F)(F)C(F)(F)C4)sc3n2)C1` [Compound I-254]: the negative-log IC50 (pIC50) is 7.70.
Under `CC(=O)N[C@@H](C)CO[C@H]1C[C@H](COc2ccc3nc(N4CCC4)sc3n2)C1` [Compound I-255] stands 7.62; under `CC(=O)N[C@@H](C)CO[C@H]1C[C@H](COc2ccc3nc(N4CC(F)C4)sc3n2)C1` [Compound I-256], 7.41; under `CC(=O)N[C@@H](C)CO[C@H]1C[C@H](COc2ccc3nc(N4CCCC4)sc3n2)C1` [Compound I-257], 7.85.
`CC(=O)N[C@@H](C)CO[C@H]1C[C@H](COc2cc(C)c3nc(OC4CC4)sc3n2)C1` [Compound I-258]: the pIC50 was 7.00.
Regarding `CC(=O)N[C@@H](C)CO[C@H]1CC[C@H](Oc2cc3sc(O[C@H]4CCOC4)nc3cn2)CC1` [Compound I-259], the pIC50 is 7.07.
